{"source": "patent US8343966B2", "about": "“Organic compounds” (Novartis AG, priority 2008, dated 2013)", "data": [{"biological_target": "T1, human ALK5 (ALK5 T204D kinase domain) (Homo sapiens, UniProt P36897, T204D)", "T1 construct": "The kinase domain of human ALK5 (amino acids 200-503); made in house; host or cells: insect cells (baculovirus)", "T1 sequence (P36897 200-503 T204D)": "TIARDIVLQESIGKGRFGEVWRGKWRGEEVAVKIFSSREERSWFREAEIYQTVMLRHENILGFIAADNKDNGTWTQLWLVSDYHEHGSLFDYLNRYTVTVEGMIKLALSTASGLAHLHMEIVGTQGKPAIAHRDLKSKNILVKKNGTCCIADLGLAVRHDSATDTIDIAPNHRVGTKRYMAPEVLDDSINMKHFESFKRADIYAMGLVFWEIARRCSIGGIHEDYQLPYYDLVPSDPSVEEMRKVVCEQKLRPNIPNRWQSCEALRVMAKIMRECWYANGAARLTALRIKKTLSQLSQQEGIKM", "test": "ALK5 kinase assay, [33P] phosphate incorporation into casein", "type": "biochemical", "conditions": "casein substrate, 1 μM unlabelled ATP", "procedure": "The kinase activity of ALK5 is assessed by measuring radiolabelled phosphate [33P] incorporation in to the generic substrate, casein. The kinase domain of human ALK5 (amino acids 200-503) is fused to an N-terminal histidine tag. The kinase activity of ALK5 is rendered constitutive via point mutation at amino acid 204 (threonine to aspartate modification, ALK5 T204D) and the kinase construct is engineered to be expressed from a baculovirus expression construct in insect cells. The purified, recombinantly-expressed histidine-tagged ALK5 T204D protein is dissolved at 5.4 mg/ml in 50 mM Tris-HCl pH 8.0, 150 mM NaCl, 5 mM DTT. ALK5 T204D is dissolved to 2.5 μg/ml in assay buffer (Assay buffer: 20 mM Tris-HCl pH 7.4, 10 mM MgCl2, 2 mM MnCl2) on the day of use.\nTest compounds and reference compounds are dissolved in assay buffer without DTT containing 5% (v/v) DMSO. Stock solutions of test and reference compounds are diluted in assay buffer with DTT (1.25 mM) containing 4.5% (v/v) DMSO. 10 μl of test or reference compound are added to the appropriate wells of 96 well U-bottomed plate. Total enzyme activity is determined by measuring ALK5 T204D activity in the absence of ALK5 kinase inhibitor reference compounds. Non-specific binding (NSB) is determined by measuring the activity of ALK5 T204D in the presence of ALK5 kinase inhibitor reference compounds. 10 μl of dephosphorylated casein stock solution (dephosphorylated casein is dissolved in ddH2O at 20 mg/ml) is added per well (200 μg/well final assay concentration). 20 μl of ALK5 T204D (2.5 μg/ml solution) is added per well (50 ng/well final assay concentration). The plates are left to incubate at room temperature for 10 minutes.\n10 μl of ATP mix is added to the well to initiate the reaction (0.66 nM [^33P]ATP/1 μM unlabelled ATP/well final assay concentration). The ATP mix is prepared as follows, unlabelled ATP (3 mM) is dissolved in ddH2O and pH adjusted to 7.4. The stock concentration of [^33P]ATP is 10 μCi/μl. The appropriate volume of [^33P]ATP is added to unlabelled ATP solution such that the final assay concentration per well is 0.1 μCi. Following addition of the ATP mix, the plates are incubated at room temperature for 50 minutes. The kinase reaction is terminated by the addition of 50 μL Stop Buffer (20 mM Tris-HCl pH 7.4, 10 mM EDTA).\n75 μl/well from the reaction plate is transferred to a Multiscreen-IP plate (MultiScreen-IP plates are prepared by added 50 μL of 70% (v/v) ethanol per well and incubated for 5 minutes at room temperature. The ethanol is removed by aspiration via a MultiScreen HTS Vacuum Manifold unit (Millipore, Cat no: MSVMHT500). The plates are washed twice by adding 200 μl/well ddH2O). The MultiScreen-IP plate is incubated at room temperature for 30 minutes to allowing binding of casein to the plate. The MultiScreen-IP plates are washed three times by adding 200 μl/well 100 mM phosphoric acid solution and the gasket is carefully removed from the back of the MultiScreen-IP plate and the plate dried in the oven for 30 minutes. The MultiScreen-IP plate is backsealed, 50 μL of Microscint™20 is added, then the plates are topsealed and radiolabelled casein detected and quantified on a TopCount™ plate-reader using the ^33P scintillation protocol.", "units": {"IC50": "nM"}, "values": [{"compound": "Cc1cc(CN2CCN(C(C)C)CC2)ccc1-c1cncc(-c2cc(-c3ccccn3)nc(C(C)(C)O)c2)c1", "note": "[Example 2.90, 2-{5″-[4-(4-Isopropyl-piperazin-1-ylmethyl)-2-methyl-phenyl]-[2,2′;4′,3″]terpyridin-6′-yl}-propan-2-ol]", "IC50": 71}, {"compound": "CNc1cc(-c2cncc(-c3ccc(N4CCN(C)CC4)cc3)c2)cc(-c2ccccn2)n1", "note": "[Example 2.2, Methyl-{5″-[4-(4-methyl-piperazin-1-yl)-phenyl]-[2,2′;4′,3″]terpyridin-6′-yl}-amine]", "IC50": 30}, {"compound": "c1cncc(-c2cc(NCc3cccc4[nH]ccc34)nc(-c3ccco3)c2)c1", "note": "[Example 1.2, (6′-Furan-2-yl-[3,4′]bipyridinyl-2′-yl)-(1H-indol-4-ylmethyl)-amine]", "IC50": 19}, {"compound": "CC(C)(C)N1CCN(Cc2ccc(-c3cncc(-c4cc(NC5CC5)nc(-c5ccccn5)c4)c3)cc2)CC1", "note": "[Example 2.120, {5″-[4-(4-tert-Butyl-piperazin-1-ylmethyl)-phenyl]-[2,2′;4′,3″]terpyridin-6′-yl}-cyclopropyl-amine]", "IC50": 22}, {"compound": "c1cncc(-c2cc(NCCc3c[nH]c4ccccc34)nc(-c3ccco3)c2)c1", "note": "[Example 1.1, (6′-Furan-2-yl-[3,4′]bipyridinyl-2′-yl)-[2-(1H-indol-3-yl)-ethyl]-amine]", "IC50": 16}, {"compound": "CNc1cc(-c2cncc(-c3ccc(CN4CCNCC4)cc3)c2)cc(-c2ccccn2)n1", "note": "[Example 2.172, Methyl-[5″-(4-piperazin-1-ylmethyl-phenyl)-[2,2′;4′,3″]terpyridin-6′-yl]-amine]", "IC50": 10}, {"compound": "Cc1ccc(-c2cc(-c3cccnc3)cc(NCCc3c[nH]c4ccccc34)n2)o1", "note": "[Example 1.3, [2-(1H-Indol-3-yl)-ethyl]-[6′-(5-methyl-furan-2-yl)-[3,4′]bipyridinyl-2′-yl]-amine]", "IC50": 23}, {"compound": "CNc1cc(-c2cncc(-c3ccc(C(=O)N4CCN(C)CC4)cc3)c2)cc(-c2ccccn2)n1", "note": "[Example 2.1, [4-(6′-Methylamino-[2,2′;4′,3″]terpyridin-5″-yl)-phenyl]-(4-methyl-piperazin-1-yl)-methanone]", "IC50": 17}, {"compound": "CC(C)(O)c1cc(-c2cncc(-c3ccc(CN4CCNCC4)cc3)c2)cc(-c2ccccn2)n1", "note": "[Example 2.81, 2-[5″-(4-piperazin-1-ylmethyl-phenyl)-[2,2′;4′,3″]terpyridin-6′-yl]-propan-2-ol]", "IC50": 28}, {"compound": "[2H]C([2H])([2H])N1CCN(C(=O)c2ccc(-c3cncc(-c4cc(-c5ccccn5)nc(C(C)(C)O)c4)c3)cc2)CC1", "note": "[Example 2.83, {4-[6′-(1-Hydroxy-1-methyl-ethyl)-[2,2′;4′,3″]terpyridin-5″-yl]-phenyl}-(4-methyl-d3-piperazin-1-yl)-methanone]", "IC50": 59}, {"compound": "[2H]C([2H])([2H])Nc1cc(-c2cncc(-c3cnn(C)c3)c2)cc(-c2ccccn2)n1", "note": "[Example 2.104, Methyl-d3-[5″-(1-methyl-1H-pyrazol-4-yl)-[2,2′;4′,3″]terpyridin-6′-yl]-amine]", "IC50": 13}, {"compound": "CNc1cc(-c2cncc(-c3ccc(C(=O)N4CCN(C)CC4)cc3)c2)cc(-c2cccc(C)n2)n1", "note": "[Example 2.28, [4-(6-Methyl-6′-methylamino-[2,2′;4′,3″]terpyridin-5″-yl)-phenyl]-(4-methyl-piperazin-1-yl)-methanone]", "IC50": 52}, {"compound": "[2H]C([2H])([2H])N1CCN(Cc2ccc(-c3cncc(-c4cc(-c5ccccn5)nc(C(C)(C)O)c4)c3)cc2)CC1", "note": "[Example 2.85, 2-{5″-[4-(4-Methyl-d3-piperazin-1-ylmethyl)-phenyl]-[2,2′;4′,3″]terpyridin-6′-yl}-propan-2-ol]", "IC50": 74}, {"compound": "CNc1cc(-c2cncc(-c3ccc(CN4CCN(C)CC4)cc3)c2)cc(-c2ccccn2)n1", "note": "[Example 2.26, Methyl-{5″-[4-(4-methyl-piperazin-1-ylmethyl)-phenyl]-[2,2′;4′,3″]terpyridin-6′-yl}-amine]", "IC50": 12}, {"compound": "O=C(c1ccc(-c2cncc(-c3cc(NC4CC4)nc(-c4ccccn4)c3)c2)cc1)N1CCNCC1", "note": "[Example 2.30, [4-(6′-Cyclopropylamino-[2,2′;4′,3″]terpyridin-5″-yl)-phenyl]-piperazin-1-yl-methanone]", "IC50": 8}, {"compound": "CCNc1cc(-c2cncc(-c3cccc(CN4CCN(C(C)(C)C)CC4)c3)c2)cc(-c2ccccn2)n1", "note": "[Example 2.111, {5″-[3-(4-tert-Butyl-piperazin-1-ylmethyl)-phenyl]-[2,2′;4′,3″]terpyridin-6′-yl}-ethyl-amine]", "IC50": 154}, {"compound": "Cc1cccc(-c2cc(-c3cncc(-c4ccc(CO)cc4)c3)cc(NC3CC3)n2)n1", "note": "[Example 2.69, [4-(6′-Cyclopropylamino-6-methyl-[2,2′;4′,3″]terpyridin-5″-yl)-phenyl]-methanol]", "IC50": 28}, {"compound": "CCNc1cc(-c2cncc(-c3cccc(CN4CCN(C(C)C)CC4)c3)c2)cc(-c2ccccn2)n1", "note": "[Example 2.114, Ethyl-{5″-[3-(4-isopropyl-piperazin-1-ylmethyl)-phenyl]-[2,2′;4′,3″]terpyridin-6′-yl}-amine]", "IC50": 42}, {"compound": "CNc1cc(-c2cncc(-c3ccnc(OC)c3)c2)cc(-c2ccccn2)n1", "note": "[Example 2.17, (2′″-Methoxy-[2,2′;4′,3″;5″,4′″]quaterpyridin-6′-yl)-methyl-amine]", "IC50": 236}, {"compound": "CC(C)(O)c1cc(-c2cncc(-c3cnn(C4CCNCC4)c3)c2)cc(-c2ccccn2)n1", "note": "[Example 2.88, 2-[5″-(1-Piperidin-4-yl-1H-pyrazol-4-yl)-[2,2′;4′,3″]terpyridin-6′-yl]-propan-2-ol]", "IC50": 22}, {"compound": "CC1(C)CN(Cc2ccc(-c3cncc(-c4cc(-c5ccccn5)nc(C(C)(C)O)c4)c3)cc2)CCN1", "note": "[Example 2.92, 2{-5″-[4-(3,3-Dimethyl-piperazin-1-ylmethyl)-phenyl]-[2,2′;4′,3″]terpyridin-6′-yl}-propan-2-ol]", "IC50": 35}, {"compound": "Nc1cc(-c2cncc(-c3ccc(CN4CCNCC4)cc3)c2)cc(-c2ccccn2)n1", "note": "[Example 2.159, 5″-(4-piperazin-1-ylmethyl-phenyl)-[2,2′;4′,3″]terpyridin-6′-ylamine]", "IC50": 24}, {"compound": "Cc1cccc(-c2cc(-c3cncc(-c4ccc(CN5CCN(C(C)C)CC5)cc4)c3)cc(N)n2)n1", "note": "[Example 2.71, 5″-[4-(4-Isopropyl-piperazin-1-ylmethyl)-phenyl]-6-methyl-[2,2′;4′,3″]terpyridin-6′-ylamine]", "IC50": 74}, {"compound": "CC(C)N1CCC(n2cc(-c3cncc(-c4cc(-c5ccccn5)nc(C(C)(C)O)c4)c3)cn2)CC1", "note": "[Example 2.89]", "IC50": 17}, {"compound": "CC(C)N1CCN(Cc2ccc(-c3cncc(-c4cc(-c5ccccn5)nc(C(C)(C)C)c4)c3)cc2)CC1", "note": "[Example 2.95, 6′-tert-Butyl-5″-[4-(4-isopropyl-piperazin-1-ylmethyl)-phenyl]-[2,2′;4′,3″]terpyridine]", "IC50": 209}, {"compound": "CC(C)N1CCN(Cc2ccc(-c3cncc(-c4cc(-c5ccccn5)nc(C(C)(C)O)c4)c3)cc2)CC1", "note": "[Example 2.80, 2-(5″-[4-(4-Isopropyl-piperazin-1-ylmethyl)-phenyl]-[2,2′;4′,3″]terpyridin-6′-yl)-propan-2-ol]", "IC50": 39}, {"compound": "CC1CN(C(=O)c2ccc(-c3cncc(-c4cc(-c5ccccn5)nc(C(C)(C)O)c4)c3)cc2)CC(C)N1C", "note": "(stereo not drawn) [Example 2.87, {4-[6′-(1-Hydroxy-1-methyl-ethyl)-[2,2′;4′,3″]terpyridin-5″-yl]-phenyl}-(3,4,5-trimethyl-piperazin-1-yl)-methanone]", "IC50": 139}]}]}
